Laboratory results taken from patent publication US20060046975A1, “Method for preparing a medical solution for the manufacture of a medicament for peritoneal dialysis” (priority 2002, published 2006).

Experiments:
[1] = system: peritoneum; details: cited from earlier work
[2] = system: cultured cells; test: in vitro inhibition of cell growth (ICG) in cultured cells by heat sterilised NAG solutions; type: cell-based
Description: Experiments in which measurements of the percentage of inhibition of cell growth (ICG) and fluorescence have been made at varying NAG concentrations, and also at varying pH values, during terminal heat sterilisation are illustrated in FIGS. 1-4. The results of the experiments imply that the concentration of the amino sugar/sugars should be optimised.
(§1) A simple, reliable and known way to study the cytotoxicity of substances or of medical fluids is to test proliferation as in vitro inhibition of cell growth (ICG) in cultured cells. Another method to get a rough estimation of the amount of amino sugars that is rearranged is measurement of the fluorescence.
More precisely, from the graph in FIG. 1 it can be seen that the inhibition of cell growth reaches a maximum with sterilisation of a solution containing about 5% NAG. With increasing NAG concentration the inhibition of cell growth decreases.
The bar diagram in FIG. 2 illustrates the effect of increased NAG concentration at different pH values during terminal heat sterilisation.

[3] = analysis of degradation products (3-DG, 3,4-DGE) in heat sterilised solutions by HPLC; type: physicochemical; details: heat sterilised NAG solutions
Description: This cytotoxicity depends on the formation of toxic degradation products from said amino sugars. […] This fact has not been known previously and forms the basis for the present invention. It should be noted that the decomposition pattern for an amino sugar solution during heat sterilisation follows specific Maillard reactions giving several different toxic decomposition products. The decomposition pattern differs for e.g. a glucose solution during heat sterilisation, wherein different decomposition products are formed. This difference is illustrated in FIGS. 5a-5d, showing chromatograms when analysing 3-DG and 3,4-DGE in a NAG solution and in a glucose solution, respectively. The difference in degradation is likely due to that the NAG molecules contains groups that allows the Maillard reaction to take place and therefore create a large number of degradation products not seen in a glucose solution.

[4] = system: human peritoneal mesothelial cells and fibroblasts; details: Breborowicz et al 1998; cited from earlier work
[5] = pH change of the solution during sterilisation; type: physicochemical
Description: NAG and other amino sugars have a major difference from glucose and glucose-like compounds by having one amino group and possibly an acetyl group coupled to the glucose ring.

[6] = fluorescence of terminally heat sterilised NAG containing solution; type: physicochemical; details: FIG. 3; excitation at 350 nm, emission of 430 nm
Description: as §1
The lowest fluorescence is seen at around pH 4.

| change of pH of the solution during sterilisation [5] | pH at which fluorescence is lowest [6] | Compound | function of the peritoneum as a dialysis membrane ([1]; Wieczorowska et al 1995, fluid supplemented with exogenous hyaluronan) | inhibition of cell growth with increasing NAG concentration ([2]; FIG. 1, above the maximum at about 5% NAG) | NAG concentration during sterilisation at which inhibition of cell growth reaches a maximum ([2]; FIG. 1, terminal heat sterilisation) | inhibition of cell growth, effect of NAG concentration during sterilisation ([2]; FIG. 2, 30% versus 1.5% NAG, for all three pH values) | percentage inhibition of cell growth, effect of pH during sterilisation ([2]; FIG. 2, pH 3.0 versus pH 5.5 and 7.2) | optimal pH of sterilisation from an in vitro toxicological point of view ([2]; NAG containing solution, higher or lower pH gives higher percentage of inhibited growth) | cytotoxicity after heat sterilisation ([2]; amino sugars, e.g. NAG, in conventional medical solutions) | known glucose degradation products found [3] | production of hyaluronan and sulphated glycosaminoglycans [4] | effect on the peritoneum of dialysis solution supplemented with N-acetylglucosamine ([1]; Wu et al 1998, chronic peritoneal dialysis) |
| --- | --- | --- | --- | --- | --- | --- | --- | --- | --- | --- | --- | --- |
|  |  | hyaluronan [reference compound] | better preserved |  |  |  |  |  |  |  |  |  |
| increases during sterilisation | ~4 | CC(=O)N[C@H]1C(O)O[C@H](CO)[C@@H](O)[C@@H]1O (stereo partly drawn) [NAG, N-acetylglucosamine] |  | decreases | about 5% | lower after a terminal heat sterilisation at a NAG concentration of 30% than at a NAG concentration of 1.5% | lower after terminal heat sterilisation at a pH of 3.0 than at a pH of 5.5 and 7.2 | 2.5-3.5 | increased cytotoxicity | none of the known glucose degradation products has been found | rapidly stimulates | causes accumulation of glucosaminoglycans in the peritoneal interstitium |
